Experimental data from paper PMC5846726, “Characterization of the Mel1c melatoninergic receptor in platypus (Ornithorhynchus anatinus)” (PLoS ONE, 2018).
Read-outs that look alike come from different tables or passages of the source.

How the values were obtained:
quinone reductase 2; QR2 = system: quinone reductase 2; QR2; design: method as in PMID 10913150; conditions: introduction statement, 'in the 10 μM range'; cited from earlier work
X. laevis Mel1c receptor = molecular target: T1, X. laevis Mel1c receptor (Xenopus laevis, UniProt P49219); assay: 2-[125I]-iodomelatonin competition binding, transiently transfected COS7 cells, Xenopus Mel1c; conditions: COS7 cells transiently transfected with Mel1c gene; radioligand 2-[125I]-iodomelatonin; two transfections, triplicate; read-out: pKi Xenopus laevis (converted)
T1 construct: expressed in transfected cells; host or cells: COS7 (transient nucleofection, pCIneo vector)
T1 sequence (P49219 1-354 isoform P49219-2): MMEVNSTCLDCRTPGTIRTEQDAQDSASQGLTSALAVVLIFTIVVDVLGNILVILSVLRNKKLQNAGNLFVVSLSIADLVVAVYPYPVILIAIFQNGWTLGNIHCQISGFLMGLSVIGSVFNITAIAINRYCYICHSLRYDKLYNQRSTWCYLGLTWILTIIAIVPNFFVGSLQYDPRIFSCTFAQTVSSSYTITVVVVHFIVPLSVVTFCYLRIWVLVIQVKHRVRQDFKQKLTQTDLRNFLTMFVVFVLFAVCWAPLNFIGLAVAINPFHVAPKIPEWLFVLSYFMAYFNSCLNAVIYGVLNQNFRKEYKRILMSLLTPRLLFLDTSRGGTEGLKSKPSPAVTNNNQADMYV
Description: (§1) COS7 cells obtained from the American Type Culture Collection were maintained in DMEM GlutaMAX (Thermo Fisher Scientific, Waltham, USA) supplemented with 10% (v/v) fetal calf serum. Nucleofection of COS7 cells was performed according to the manufacturer's instructions using the Nucleofector machine (Amaxa, Cologne, Germany). Adherent COS7 cells were washed in phosphate-buffered saline (PBS), trypsinized, and gently resuspended in V nucleofection solution to a final concentration of 7 × 10^6 cells/100 μl. Next, 5 μg of pCIneo/Mel1c vector was mixed with 100 μl of the COS7 cell suspension, transferred to a […] electroporation cuvette, and nucleofected using program A024 and an Amaxa Nucleofector apparatus. Just after the nucleofection, 500 μl of media supplemented with 20% (v/v) fetal calf serum was added to the cell suspension and cultured in a humidified 37°C, 5% CO2 incubator for 20 minutes. Fourteen million cells were transferred to a T225 flask containing 50 ml of media supplemented with 20% (v/v) fetal calf serum and cultured in a humidified 37°C, 5% CO2 incubator. Two days after transfection, the cells were harvested in PBS, pelleted, and stored at -80°C until use.
(§2) This approach has been described very often by our laboratory and others. […] The results were expressed as Ki, taking into account the concentration of radioligand used in each experiment. […] The reaction was stopped by rapid filtration through GF/B Unifilters, followed by three successive washes with ice-cold buffer. Data were analyzed by using the program PRISM (GraphPad Software Inc., San Diego, CA). For saturation assays, the density of binding sites (Bmax) and the dissociation constant of the radioligand (KD) were calculated according to the Scatchard method. […] A similar protocol was used when the binding was performed on whole cells, as described by Legros et al.. As per Plos One policy, all the raw data–listings from radioactivity counter are attached as raw files (Supplementary Tables A to M in S1 Data).
(§3) To obtain stable expression of the receptor for future studies, a preliminary step involving transient expression of the receptor was performed. The Mel1c receptors from the three species were expressed in transiently transfected COS7 cells. A limited number of compounds were tested in order to gain a preliminary perception of the characteristics of Mel1c from these species.

MT2 = conditions: introduction statement; cited from earlier work
Platypus Mel1C [1] = molecular target: T2, Platypus Mel1C (Ornithorhynchus anatinus, UniProt A0A2P1K6N2); assay: 2-[125I]-iodomelatonin competition binding, membranes from stably transfected CHO cells, platypus Mel1c
T2 sequence (A0A2P1K6N2 1-349): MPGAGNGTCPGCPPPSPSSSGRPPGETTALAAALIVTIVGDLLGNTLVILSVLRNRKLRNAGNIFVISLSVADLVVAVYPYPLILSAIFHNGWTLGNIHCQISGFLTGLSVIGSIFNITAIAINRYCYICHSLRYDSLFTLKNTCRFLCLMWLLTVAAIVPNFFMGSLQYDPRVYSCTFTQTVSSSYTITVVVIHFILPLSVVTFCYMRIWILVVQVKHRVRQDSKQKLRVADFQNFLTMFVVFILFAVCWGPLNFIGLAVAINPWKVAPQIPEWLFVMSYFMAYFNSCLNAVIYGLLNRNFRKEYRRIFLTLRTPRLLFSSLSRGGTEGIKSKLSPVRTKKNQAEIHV
Description: (§4) CHO-Flp-In cells (Thermo Fisher Scientific, Waltham, USA) were cultivated in the presence of zeocin (0.1 mg/ml). The cells were cotransfected with either platypus (cloned sequence that will be submitted to GenBank) Mel1c/pcDNA5-FRT (platypus Mel1c) or X. laevis (NM 001087919.1) Mel1c/pcDNA5-FRT (clawed frog Mel1c) and Flp recombinase expression pOG44 plasmid using PEIpro (Invitrogen, Carlsbad, CA). CHO cells stably expressing platypus Mel1c or clawed frog Mel1c were selected using hygromycin (0.6 mg/ml). CHO-Flp-In-platypus Mel1c cells were grown in HAM F12 with 2 mM glutamine and supplemented with 10% fetal calf serum. Cells were selected using antibiotic pressure (hygromycin) for 72 h. […] After confirmation of the presence of the transgene, the cells were amplified up to 2 x 10^9 cells. This material was used to prepare the cell membranes used in further pharmacological experiments.
(§5) This standard procedure was described in a previous experiment with CHO cells expressing the sheep MT2 receptor [23]. […] The resulting pellet was suspended in 5 mM Tris/HCl (pH 7.4) containing 2 mM EDTA and homogenized using a Kinematica polytron. The homogenate was then centrifuged (20,000g, 30 min, 4°C) and the resulting pellet suspended in 75 mM Tris/HCl (pH 7.4) containing 2 mM EDTA and 12.5 mM MgCl2. The protein content was determined according to the method of Lowry et al. using the Bio-Rad kit (Bio-Rad SA, Ivry-sur-Seine, France). Aliquots of membrane preparations were stored in binding buffer (50 mM Tris/HCl, pH 7.4 containing 5 mM MgCl2 and 1 mM EDTA) at –80°C until use.
as §2

GPR50 = conditions: mammalian melatonin-related receptor; cited from earlier work
Platypus Mel1C [2] = molecular target: T2, Platypus Mel1C; assay: 2-[125I]-iodomelatonin competition binding, transiently transfected COS7 cells, platypus Mel1c; conditions: COS7 cells transiently transfected with Mel1c gene; radioligand 2-[125I]-iodomelatonin; two transfections, triplicate
Description: as §1, §2, §3

Xenopus Mel1C = molecular target: T3, Xenopus Mel1C (Xenopus laevis, UniProt P49219); assay: 2-[125I]-iodomelatonin competition binding, membranes from stably transfected CHO cells, Xenopus Mel1c; conditions: radioligand 2-[125I]-iodomelatonin
T3 construct: expressed in transfected cells
T3 sequence (P49219 1-420): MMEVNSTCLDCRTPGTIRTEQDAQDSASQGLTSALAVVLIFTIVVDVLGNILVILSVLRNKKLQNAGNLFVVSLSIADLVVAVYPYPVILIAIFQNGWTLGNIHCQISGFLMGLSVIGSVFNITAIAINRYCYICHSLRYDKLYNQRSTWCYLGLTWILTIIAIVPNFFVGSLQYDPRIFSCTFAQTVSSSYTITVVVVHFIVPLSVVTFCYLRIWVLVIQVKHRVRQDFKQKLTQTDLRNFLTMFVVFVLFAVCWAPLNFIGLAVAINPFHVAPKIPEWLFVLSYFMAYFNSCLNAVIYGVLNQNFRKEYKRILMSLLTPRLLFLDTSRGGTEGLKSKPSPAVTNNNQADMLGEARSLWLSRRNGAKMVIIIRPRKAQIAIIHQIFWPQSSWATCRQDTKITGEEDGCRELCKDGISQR
Description: as §4, §5, §2

MT1 = conditions: introduction statement; cited from earlier work
hMT2 = molecular target: T4, hMT2 (Homo sapiens, UniProt P49286); assay: 2-[125I]-iodomelatonin competition binding, human MT2; conditions: membranes from stably transfected CHO cells; radioligand 2-[125I]-iodomelatonin; read-out: hMT2 (converted)
T4 sequence (P49286 1-362): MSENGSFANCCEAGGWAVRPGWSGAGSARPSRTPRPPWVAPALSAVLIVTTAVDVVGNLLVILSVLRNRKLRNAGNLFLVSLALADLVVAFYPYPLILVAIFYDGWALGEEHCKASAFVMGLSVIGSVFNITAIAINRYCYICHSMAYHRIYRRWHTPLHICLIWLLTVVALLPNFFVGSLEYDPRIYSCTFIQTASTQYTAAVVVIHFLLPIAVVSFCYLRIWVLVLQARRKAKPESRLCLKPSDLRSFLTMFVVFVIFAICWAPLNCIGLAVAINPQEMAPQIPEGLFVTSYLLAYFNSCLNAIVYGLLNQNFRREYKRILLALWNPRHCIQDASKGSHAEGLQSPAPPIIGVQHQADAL
Description: as §2

hMT1 = hMT1 (Homo sapiens, UniProt P48039); assay: 2-[125I]-iodomelatonin competition binding, human MT1; conditions: membranes from stably transfected CHO cells; radioligand 2-[125I]-iodomelatonin; read-out: hMT1 (converted)
hMT1, sequence (P48039 whole entry): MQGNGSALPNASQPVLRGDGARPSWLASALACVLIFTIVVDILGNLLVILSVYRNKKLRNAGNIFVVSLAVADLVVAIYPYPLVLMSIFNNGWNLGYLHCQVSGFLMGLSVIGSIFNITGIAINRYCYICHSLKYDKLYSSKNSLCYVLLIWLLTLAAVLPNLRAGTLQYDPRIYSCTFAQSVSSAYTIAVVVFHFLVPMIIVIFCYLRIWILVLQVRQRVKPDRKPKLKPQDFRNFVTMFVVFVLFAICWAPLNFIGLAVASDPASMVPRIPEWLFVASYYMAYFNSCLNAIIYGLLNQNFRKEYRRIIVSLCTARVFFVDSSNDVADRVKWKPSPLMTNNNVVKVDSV
Description: as §2

G. gallus Mel1c receptor = molecular target: T5, G. gallus Mel1c receptor (Gallus gallus, UniProt P49288); assay: 2-[125I]-iodomelatonin competition binding, transiently transfected COS7 cells, chicken Mel1c
T5 construct: expressed in transfected cells; host or cells: COS7 (transient nucleofection, pCIneo vector)
T5 sequence (P49288 1-346): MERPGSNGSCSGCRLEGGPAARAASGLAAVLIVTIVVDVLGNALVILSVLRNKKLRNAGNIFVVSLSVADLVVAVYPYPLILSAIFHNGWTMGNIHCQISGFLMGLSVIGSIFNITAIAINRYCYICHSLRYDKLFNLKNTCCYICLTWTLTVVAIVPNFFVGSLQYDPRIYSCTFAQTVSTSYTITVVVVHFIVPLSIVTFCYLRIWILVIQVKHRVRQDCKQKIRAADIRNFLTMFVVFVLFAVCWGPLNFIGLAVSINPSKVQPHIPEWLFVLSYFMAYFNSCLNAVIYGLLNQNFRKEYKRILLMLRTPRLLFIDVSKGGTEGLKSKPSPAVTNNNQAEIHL
Description: as §1, §2, §3

[3] = membranes from stably transfected CHO cells, radioligand 2-[125I]-iodomelatonin, read-out: Platypus Mel1C (converted)

Row | SMILES | affinity of QR2 for melatonin (quinone reductase 2; QR2) [µM] | Ki (X. laevis Mel1c receptor) [nM] | affinity of MT2 for melatonin (MT2) [nM] | Ki (Platypus Mel1C [1]; affinity of platypus Mel1c for melatonin, abstract statement, 'in the 1 nM range') [nM] | Ki (Platypus Mel1C [1]; [3]) [nM] | melatonin binding to GPR50 (GPR50) | pKi Ornithorhyncus anatinus (Platypus Mel1C [2]) | Ki (Xenopus Mel1C) [nM] | affinity of MT1 for melatonin (MT1) [nM] | Ki (hMT2) [nM] | Ki (hMT1) [nM] | Ki (G. gallus Mel1c receptor) [nM]
1 | COc1ccc2[nH]cc(CCNC(C)=O)c2c1 [Melatonin] | ~10 | 1.58 | ≤ 1 | ~1 | 2 | does not bind melatonin | 8.6 | 2 | ≤ 1 |  |  | 
2 | CCC(=O)N[C@@H]1Cc2ccccc2[C@H](c2ccccc2)C1 [4P-PDOT, N-[(2S,4S)-4-phenyl-1,2,3,4-tetrahydronaphthalen-2-yl]propanamide] |  | 200 |  |  | 631 |  | 6.7 | 794 |  | 1.26 | 158 | 398
